The record followed here is PubChem BioAssay (NCI).

“And” between values parts separate entries of the source, which are not always exact repeats. Equal entries are not always repeated.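 Compound exposure: 48 hours, 5 concentrations, 96-well plates. GI50: concentration for 50% inhibition of growth. TGI is the concentration that stops growth completely.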 A value given as a limit tells only on which side of the number the result lay.

Among the test systems are ACHN renal; HL-60(TB) leukemia; HOP-62 NSCLC; M14 melanoma; OVCAR-4 ovarian; RXF 393 renal; SF-295 CNS; SK-MEL-28 melanoma; TK-10 renal; U251 CNS.
Holding throughout (assay): growth of human tumour cells (NCI), 48 h

For `NC(=O)c1cc(-c2ccncc2)cc(-c2ccccc2)c1N`, the GI50 with ACHN renal is 7400 nM; in the test on HL-60(TB) leukemia it was over 25 µM; in the test with HOP-62 NSCLC, over 25000 nM; in the test on M14 melanoma it was over 25000 nM; in the test with OVCAR-4 ovarian, over 20.6 µM; in the test on RXF 393 renal, 5410 nM. Further, the GI50 was over 25 µM in the test with SF-295 CNS, over 25000 nM with SK-MEL-28 melanoma, 6.43 µM in the test with TK-10 renal and over 25000 nM in the test with U251 CNS. The TGI in the test with ACHN renal was over 25 µM; with HL-60(TB) leukemia it was over 25 µM; in the test on HOP-62 NSCLC, over 25 µM; with M14 melanoma it was over 25 µM; in the test on OVCAR-4 ovarian it was over 25 µM; in the test on RXF 393 renal it was 24.9 µM. Further, the TGI with SF-295 CNS, in the test with SK-MEL-28 melanoma, in the test on TK-10 renal and in the test with U251 CNS was over 25 µM each time.
Consider `COC(=O)CCC(C)[C@H]1CCC2C3C(C[C@H](OC(C)=O)[C@@]21C)[C@@]1(C)CCC2(C[C@H]1C[C@H]3OC(C)=O)OOC1(CCC(C)CC1)OO2` (stereo not given in full), for which the TGI in the test with ACHN renal is 61.7 µM and > 100 µM; in the test with HL-60(TB) leukemia, 27.7 µM and > 100 µM; in the test on HOP-62 NSCLC, 6.4 µM and 28.4 µM; in the test on M14 melanoma, over 100 µM; in the test on OVCAR-4 ovarian, 49.5 µM and > 100 µM; in the test on RXF 393 renal it was over 100 µM. For the same compound, the TGI in the test with SF-295 CNS, with SK-MEL-28 melanoma, in the test on TK-10 renal and with U251 CNS was over 100 µM in each case. The GI50 in the test with HL-60(TB) leukemia was 3.36 µM and 14.9 µM; in the test on HOP-62 NSCLC it was 2060 nM and 8760 nM; with OVCAR-4 ovarian it was 3.75 µM and 18.2 µM; in the test on SF-295 CNS it was > 100 µM and 47.1 µM; in the test with TK-10 renal, 10.8 µM and > 100 µM.
With `COc1ccc(Cl)cc1Nc1nc(C(F)(F)F)ccc1C(=O)N/N=C/c1ccc([N+](=O)[O-])cc1`, the GI50 in the test with ACHN renal is 2180 nM; in the test with HL-60(TB) leukemia it was 2.14 µM; in the test on HOP-62 NSCLC it was 2350 nM; with M14 melanoma, 1600 nM; in the test with OVCAR-4 ovarian it was 0.979 µM; with RXF 393 renal, 1280 nM. The GI50 in the test with SF-295 CNS is 1.17 µM; in the test on SK-MEL-28 melanoma it was 2790 nM; in the test with TK-10 renal, 1.22 µM; in the test with U251 CNS, 2060 nM. Also, the TGI in the test on ACHN renal turned out to be 5.42 µM; in the test on HL-60(TB) leukemia, 7.18 µM; in the test with HOP-62 NSCLC it was 11.4 µM; with M14 melanoma, 5.41 µM; in the test on OVCAR-4 ovarian it was 7.68 µM; with RXF 393 renal, 6.04 µM. Besides, the TGI in the test on SF-295 CNS is 3.79 µM; with SK-MEL-28 melanoma, over 100 µM; with TK-10 renal, 5.88 µM; in the test on U251 CNS it was 6.63 µM.
For `Cc1ccc(NC(=O)CC/C(CC(=O)C(C)(C)C)=N/NC(=O)C(N)=O)cc1C`, the TGI in the test with ACHN renal, in the test with HL-60(TB) leukemia, in the test with HOP-62 NSCLC, with M14 melanoma, with OVCAR-4 ovarian and with RXF 393 renal was over 100 µM throughout. Besides, the TGI with SF-295 CNS, in the test with SK-MEL-28 melanoma, in the test with TK-10 renal and in the test on U251 CNS was over 100 µM each time.
In the case of `CC1(C)C(c2ccccc2)C12CCC1(C2=O)C(c2ccccc2)C1(C)C` (stereo not given), the TGI is 39 µM in the test with ACHN renal; 37.4 µM with HL-60(TB) leukemia; 60.5 µM with HOP-62 NSCLC; 75.5 µM in the test on M14 melanoma; over 100 µM in the test on OVCAR-4 ovarian; 45.7 µM with RXF 393 renal. The TGI in the test with SF-295 CNS is 47.2 µM; in the test on SK-MEL-28 melanoma, 78.3 µM; in the test with TK-10 renal, over 100 µM; in the test with U251 CNS, 34.9 µM.
Take `Cc1c(C)c2c(c(C)c1NC(=O)/C=C\C(=O)O)CCC(C)(CCCC(C)CCCC(C)CCCC(C)C)O2` (stereo not given): the GI50 in the test with ACHN renal is 1700 nM; with HL-60(TB) leukemia, 1.38 µM; in the test on HOP-62 NSCLC it was 1640 nM; in the test on M14 melanoma it was 1370 nM; with OVCAR-4 ovarian, 2.52 µM; with RXF 393 renal, 1740 nM. Moreover, the GI50 in the test on SF-295 CNS was 1.32 µM; in the test with SK-MEL-28 melanoma it was 1790 nM; with TK-10 renal, 1.84 µM; in the test with U251 CNS, 1640 nM. For the same compound, the TGI in the test with ACHN renal was 3.07 µM; with HL-60(TB) leukemia it was 6.82 µM; in the test on HOP-62 NSCLC it was 3.08 µM; with M14 melanoma it was 2.75 µM; in the test on OVCAR-4 ovarian it was 5.16 µM; in the test on RXF 393 renal it was 3.23 µM. The TGI was found to be 2.77 µM with SF-295 CNS, 3.28 µM with SK-MEL-28 melanoma, 3.39 µM in the test with TK-10 renal and 3.18 µM in the test on U251 CNS.
Regarding `O=C1c2cccc3cc([N+](=O)[O-])cc(c23)C(=O)N1NC1=NCCN1`, the TGI in the test with ACHN renal, with HL-60(TB) leukemia, with HOP-62 NSCLC, with M14 melanoma, in the test on OVCAR-4 ovarian and in the test with RXF 393 renal was over 100 µM in each case. Moreover, the TGI in the test on SF-295 CNS, in the test on SK-MEL-28 melanoma, with TK-10 renal and with U251 CNS was over 100 µM throughout.
For `NC1=NC(c2ccc(Cl)cc2)N(c2ccc(S(=O)(=O)Nc3ncccn3)cc2)C(N)=N1` (stereo not given), the TGI is over 100 µM in the test on ACHN renal; 1.08 µM with HL-60(TB) leukemia; over 100 µM in the test with HOP-62 NSCLC; over 100 µM with M14 melanoma; over 100 µM in the test on OVCAR-4 ovarian; over 100 µM with RXF 393 renal. The TGI with SF-295 CNS, in the test with SK-MEL-28 melanoma, with TK-10 renal and in the test on U251 CNS was over 100 µM each time.
